Article PMC5940854, “Nitrothiophene carboxamides, a novel narrow spectrum antibacterial series: Mechanism of action and Efficacy” (Scientific Reports, 2018)
≈ marks a conversion by molar mass, not a printed value.

Legend:
[1] = tested on: E. coli clinical isolates; assay: MIC on panel of E. coli clinical isolates; assay type: cell-based
Cytotoxicity, MTS assay = assay type: cell-based; details: human, A549 cells
Method: Cytotoxicity of the compounds was evaluated using MTS ((3-(4,5-dimethylthiazol-2-yl)-5-(3-carboxymethoxyphenyl)-2-(4-sulfophenyl)-2H-tetrazolium)) assay. A-549 cells were seeded in a 96 well plate at a density if 1.5 × 10^4 cells/well (100 μL). The cells were cultured in a CO2 incubator at 37 °C. A ten point concentration curve was set up starting from 5 nM to 100 μM with 3 fold dilution along with positive, negative and blank controls. The final concentration of DMSO was maintained at 1% throughout the plate. The compound treatment was carried out for 24 hrs. After incubation MTS reagent was added followed by 30 min incubation. The absorbance was measured at 490 nm. Data analysis was done using GraphPad Prism 6.0.

NfsA = target: T1, NfsA (Escherichia coli, UniProt P17117); assay: Nitroreductase activity assay, NfsA; assay type: biochemical, E. coli; details: 20 μM compound, 40 μM NADPH, 10 nM NfsA; slope of initial velocity
T1 construct: His-tag; made in house; host or cells: E. coli BL21(DE3), pET28a (pET-nfsA)
Method: Enzyme reducing each of the substrates are measured by monitoring the concomitant oxidation of NADPH by NfsA and NADH by NfsB in a fluorescence based assay. The reduction in fluorescence due to the NADH oxidation (excitation 350 nm, emission 460 nm) and NADPH oxidation (excitation 340 nm, emission 485 nm) is recorded using a TECAN Infinite M200Pro spectrophotometer, in half area solid black microtiter plates. This change in fluorescence directly corelates to the reduction of the nitro-compounds in the reaction. The NfsA assays is performed by initiating the reactions with 40 μM NADPH and 10 nM NfsA in 50 mM Tris-HCl (pH 7.4), 5 mM EDTA against 20 μM substrate (5 μl of compounds/substrate dissolved in 100% DMSO) in a total reaction volume of 100 μl at 25 °C. Similarly, the NfsB assay is also performed by initiating the reactions with 40 μM NADH and 70 nM NfsB in 50 mM Tris-HCl (pH 7.4), 5 mM EDTA against 20 μM substrate in a total reaction volume of 100 μl. […] All reactions are performed in replicates of two or more and the fluorescence measurements are made at 10 second intervals for 5–10 minutes.
Low solubility of the compounds/substrates under the NfsA and NfsB assay conditions precluded determination of their Km. […] The relative fluorescence units (RFU) obtained due to NADPH (excitation 340 nm, emission 485 nm) or NADH (excitation 350 nm, emission 460 nm) oxidation of the first 90 sec reaction is used to compute the slopes using linear regression analysis on GraphPad Prism. Appropriate blank reactions are included to account for background fluorescence/quenching from each of the components such as DMSO, the compound itself and auto-oxidation of NADPH or NADH. Activity of NfsB with a known substrate such as nitrofurantoin is used as a benchmark to plot the relative activities with all the test compounds.

T1 sequence (P17117 whole entry): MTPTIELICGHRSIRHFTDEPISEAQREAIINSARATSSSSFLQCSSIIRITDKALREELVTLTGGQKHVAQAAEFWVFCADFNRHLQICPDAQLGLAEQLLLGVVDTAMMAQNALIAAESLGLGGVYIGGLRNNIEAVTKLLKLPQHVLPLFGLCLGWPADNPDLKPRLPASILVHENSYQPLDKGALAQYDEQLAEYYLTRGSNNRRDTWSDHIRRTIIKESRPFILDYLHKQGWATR

O=C(Nc1nc(-c2ccc(F)cc2F)cs1)c1ccc([N+](=O)[O-])s1 [compound 12, N-(4-(2,4-difluorophenyl)thiazol-2-yl)-5-nitrothiophene-2-carboxamide]
MIC Range ([1]; 75 E.coli clinical isolates): 0.06 to 40 µg/mL
MIC50 ([1]; Escherichia coli, 75 E.coli clinical isolates, 50% clinical isolates): 2.5 µg/mL (≈ 6.81 µM)
MIC90 ([1]; Escherichia coli, 75 E.coli clinical isolates, 90% clinical isolates): 10 µg/mL (≈ 27.2 µM)
MIC ([1]; strain SEC001): 4 µg/mL (≈ 10.9 µM)
MIC ([1]; strain SEC002): 4 µg/mL (≈ 10.9 µM)
MIC ([1]; strain SEC003): 4 µg/mL (≈ 10.9 µM)
MIC ([1]; strain SEC004): 32 µg/mL (≈ 87.1 µM)
MIC ([1]; strain SEC005): 4 µg/mL (≈ 10.9 µM)
MIC ([1]; strain SEC006): 4 µg/mL (≈ 10.9 µM)
MIC ([1]; strain SEC007): 2 µg/mL (≈ 5.44 µM)
MIC ([1]; strain SEC008): 32 µg/mL (≈ 87.1 µM)
MIC ([1]; strain SEC011): 2 µg/mL (≈ 5.44 µM)
MIC ([1]; strain SEC012): 1 µg/mL (≈ 2.72 µM)
MIC ([1]; strain SEC013): 32 µg/mL (≈ 87.1 µM)
MIC ([1]; strain SEC014): 2 µg/mL (≈ 5.44 µM)
MIC ([1]; strain SEC015): 32 µg/mL (≈ 87.1 µM)
MIC ([1]; strain SEC016): 2 µg/mL (≈ 5.44 µM)
MIC ([1]; strain SEC017): 0.06 µg/mL (≈ 0.163 µM)
MIC ([1]; strain SEC018): 2 µg/mL (≈ 5.44 µM)
MIC ([1]; strain SEC019): 2 µg/mL (≈ 5.44 µM)
MIC ([1]; strain SEC020): 32 µg/mL (≈ 87.1 µM)
MIC ([1]; strain SEC021): 1 µg/mL (≈ 2.72 µM)
MIC ([1]; strain SEC022): 2 µg/mL (≈ 5.44 µM)
MIC ([1]; strain SEC023): 32 µg/mL (≈ 87.1 µM)
MIC ([1]; strain SEC024): 2 µg/mL (≈ 5.44 µM)
MIC ([1]; strain SEC025): 2 µg/mL (≈ 5.44 µM)
MIC ([1]; strain SEC026): 2 µg/mL (≈ 5.44 µM)
MIC ([1]; strain SEC028): 1 µg/mL (≈ 2.72 µM)
MIC ([1]; strain SEC029): 2 µg/mL (≈ 5.44 µM)
MIC ([1]; strain SEC031): 2 µg/mL (≈ 5.44 µM)
MIC ([1]; strain SEC032): 4 µg/mL (≈ 10.9 µM)
MIC ([1]; strain SEC033): 2 µg/mL (≈ 5.44 µM)
MIC ([1]; strain SEC034): 2 µg/mL (≈ 5.44 µM)
MIC ([1]; strain SEC035): 2 µg/mL (≈ 5.44 µM)
MIC ([1]; strain SEC036): 32 µg/mL (≈ 87.1 µM)
MIC ([1]; strain SEC037): 1 µg/mL (≈ 2.72 µM)
MIC ([1]; strain SEC038): 2 µg/mL (≈ 5.44 µM)
MIC ([1]; strain SEC039): 2 µg/mL (≈ 5.44 µM)
MIC ([1]; strain SEC040): 2 µg/mL (≈ 5.44 µM)
MIC ([1]; strain SEC041): 2 µg/mL (≈ 5.44 µM)
MIC ([1]; strain SEC042): 4 µg/mL (≈ 10.9 µM)
MIC ([1]; strain SEC043): 2 µg/mL (≈ 5.44 µM)
MIC ([1]; strain SEC044): 32 µg/mL (≈ 87.1 µM)
MIC ([1]; strain SEC045): 2 µg/mL (≈ 5.44 µM)
MIC ([1]; strain SEC046): 2 µg/mL (≈ 5.44 µM)
MIC ([1]; strain SEC047): 2 µg/mL (≈ 5.44 µM)
MIC ([1]; strain SEC048): 32 µg/mL (≈ 87.1 µM)
MIC ([1]; strain SEC049): 32 µg/mL (≈ 87.1 µM)
MIC ([1]; strain SEC050): 4 µg/mL (≈ 10.9 µM)
MIC ([1]; strain SEC051): 4 µg/mL (≈ 10.9 µM)
MIC ([1]; strain SEC052): 1 µg/mL (≈ 2.72 µM)
MIC ([1]; strain SEC053): 2 µg/mL (≈ 5.44 µM)
MIC ([1]; strain SEC054): 2 µg/mL (≈ 5.44 µM)
MIC ([1]; strain SEC055): 2 µg/mL (≈ 5.44 µM)
MIC ([1]; strain SEC057): 4 µg/mL (≈ 10.9 µM)
MIC ([1]; strain SEC058): 4 µg/mL (≈ 10.9 µM)
MIC ([1]; strain SEC059): 2 µg/mL (≈ 5.44 µM)
MIC ([1]; strain SEC060): 2 µg/mL (≈ 5.44 µM)
MIC ([1]; strain SEC061): 2 µg/mL (≈ 5.44 µM)
MIC ([1]; strain SEC062): 1 µg/mL (≈ 2.72 µM)
MIC ([1]; strain SEC063): 2 µg/mL (≈ 5.44 µM)
MIC ([1]; strain SEC064): 4 µg/mL (≈ 10.9 µM)
MIC ([1]; strain SEC065): 2 µg/mL (≈ 5.44 µM)
MIC ([1]; strain SEC067): 2 µg/mL (≈ 5.44 µM)
MIC ([1]; strain SEC068): 4 µg/mL (≈ 10.9 µM)
MIC ([1]; strain SEC069): 4 µg/mL (≈ 10.9 µM)
MIC ([1]; strain SEC070): 4 µg/mL (≈ 10.9 µM)
MIC ([1]; strain SEC071): 2 µg/mL (≈ 5.44 µM)
MIC ([1]; strain SEC072): 2 µg/mL (≈ 5.44 µM)
MIC ([1]; strain SEC073): 4 µg/mL (≈ 10.9 µM)
MIC ([1]; strain SEC074): 2 µg/mL (≈ 5.44 µM)
MIC ([1]; strain SEC075): 4 µg/mL (≈ 10.9 µM)
MIC ([1]; strain SEC076): 2 µg/mL (≈ 5.44 µM)
MIC ([1]; strain SEC077): 2 µg/mL (≈ 5.44 µM)
MIC ([1]; strain SEC078): 8 µg/mL (≈ 21.8 µM)
MIC ([1]; strain SEC079): 4 µg/mL (≈ 10.9 µM)
MIC ([1]; strain SEC080): 4 µg/mL (≈ 10.9 µM)
IC50 at 24 h (Cytotoxicity, MTS assay): 16.9 µg/mL (≈ 46 µM)
NfsA activity (rate of compound conversion) (NfsA): 2.30 µM/min
